Assay results taken from US20260248087A1, “GENERATING DOUBLED HAPLOID PLANTS” (Syngenta Crop Protection AG, priority 2023, published 2026).

Experiments:
[1] = test system: isolated embryos; assay: Potted rate after metcamifen co-treatment during colchicine doubling; format: in vivo, maize; settings: for Potted Rate Mean: co-treatment with colchicine
Method: (§1) As used herein, the term “potted rate” or “potting rate” refers to the percent of germinated embryos successfully transferred to soil from total treated haploid embryos. The “potted rate” is used as an indication of plant health in monitoring the success of recovery and growth after treatment of haploids. As used herein, the term “transplant rate” refers to the survival of healthy plants after embryos were germinated and transferred to soil.
Isolated embryos were treated with metcamifen during colchicine doubling (also referred to as co-treatment). Metcamifen was added in the colchicine co-treatment media (a.k.a. doubling media) as a formulation at concentrations of 0, 200, 400, 800, 1200 mg/L. Metcamifen concentrations tested for a 24-hour duration ranged from 0-1000 mg/L. Metcamifen concentrations tested for a 48-hour condition ranged from 0-1200 mg/L. Three to four genotypes representing two heterotic groups were tested.
Initial testing on three genotypes included co-treatment of metcamifen and colchicine in Gelzan media at 28° C. with 150 PAR light at concentrations of 0, 200, and 1000 mg/L to identify a range of working concentrations. The 200 and 1000 mg/L concentrations induced similar GST27 expression levels for both the 24- and 48-hour durations. The resulting induction was higher (400 ng/mg TSP GST27) than recorded with pre-treatments of ears or isolated embryos. […] Metcamifen co-treatment of isolated embryos optimization continued by testing levels of 0, 400, 600, and 800 mg/L for 24 and 48 hours with 4 genotypes across 2 heterotic groups. GST induction (ng/mg TSP) was measured after metcamifen co-treatment. […] The percent potted rate after metcamifen co-treatment was similar for both time durations when sorted by genotype or heterotic group.

[2] = test system: corn embryos; assay: Uptake of metcamifen and metabolism of colchicine in corn embryos (LCMS); format: in vitro ADME
Method: An experiment was completed to evaluate the uptake of metcamifen into corn embryos, whether colchicine is metabolized in the embryos, and if metcamifen increased the rate of colchicine metabolism. Corn embryos were co-treated with 500 ppm colchicine in the presence of 200 ppm, 1000 ppm or no metcamifen (control) for 24 or 48 hours and frozen. One biological replicate was represented by five embryos, and three biological replicates were used per co-treatment.
Prior to extraction, embryos were washed for 20 seconds in 80:20 (v/v) acetonitrile:H2O to remove any colchicine and metcamifen on the surface. Each replicate was extracted in 0.5 ml methanol using a fast prep maceration method. Then, samples were diluted 1 in 10 prior to analysis by Liquid Chromatography Mass Spectrometry (LCMS). Samples were analyzed alongside matrix matched standards of colchicine and metcamifen. Metabolite investigations were performed to identify any metabolites.

[3] = test system: doubled haploid embryos; assay: Potting rate and root growth, metcamifen post-treatment during germination; format: in vivo, maize; settings: for Potting Rate Mean: post-treatment in germination media (2.5 g/L Gelzan)
Method: as §1
Doubled haploid embryos were treated with metcamifen during germination. Metcamifen was tested in the germination media at 0, 5, and 10 mg/L after colchicine treatment completion for 24 or 48 hours. The germination media comprised Gelzan at a concentration of 3.5 g/L. Four genotypes were tested representing two heterotic groups. […] The percent potting rate was not increased as result of these post-treatments. […] This led to a looping of the roots. A reduction in Gelzan concentration from 3.5 g/L to 2.5 g/L was tested (comparison data not presented here). The experiments were then carried out with 2.5 g/L Gelzan for metcamifen post-treatments while the control (0 metcamifen) contained 3.5 g/L Gelzan. Metcamifen was tested as 0, 5, 10 and 20 mg/L after colchicine treatment completion for 24 and 48 hours. The reduction in Gelzan of the metcamifen post-treatments led to a higher percent potting rate (see Table 5).

[4] = test system: isolated embryos; assay: Potting and transplant rate, thiamethoxam liquid media pre-treatment prior to colchicine doubling; format: in vivo, maize
Source text: as §1
TMX pre-treatment application to isolated embryos prior to colchicine doubling was done in 2 genotypes with replication. Isolated embryos were plated on filter paper and pre-treated with a formulation of TMX at concentrations ranging from 10-1000 mg/L in liquid media. The pre-treatments incubated for 0.5 to 24 hours. Following the pre-treatment, embryos were treated with colchicine for chromosome doubling and plant regeneration. The effect on potting rate and transplant rate were evaluated (see Table 10).
In a follow-up experiment, the liquid pre-treatment was tested at 30 minute and 1-hour durations to determine if a shorter duration would result in better potting and transplant rates than observed in the 1 hour treatments shown in Table 10. These were performed in the same manner as described above, in triplicate.

[5] = initial testing, 200 and 1000 mg/L, 24-hour co-treatment
[6] = Table 10: liquid media pre-treatment, TMX 10 mg/L, 1 hr
[7] = Table 10: liquid media pre-treatment, TMX 10 mg/L, 24 hr
[8] = Table 10: liquid media pre-treatment, TMX 100 mg/L, 1 hr
[9] = Table 10: liquid media pre-treatment, TMX 100 mg/L, 24 hr
[10] = Table 10: liquid media pre-treatment, TMX 1000 mg/L, 1 hr
[11] = Table 10: liquid media pre-treatment, TMX 1000 mg/L, 24 hr
[12] = Table 11: liquid pre-treatment, TMX 100 mg/L, 30 min
[13] = Table 11: liquid pre-treatment, TMX 100 mg/L, 1 hr
[14] = Table 11: liquid pre-treatment, TMX 1000 mg/L, 30 min
[15] = Table 11: liquid pre-treatment, TMX 1000 mg/L, 1 hr

CNC(=O)Nc1ccc(S(=O)(=O)NC(=O)c2ccccc2OC)cc1 [Metcamifen, metcamifen]
Potted Rate Mean ([1]; 200 mg/L, 24 hours): 84% | Potted Rate Mean ([1]; 400 mg/L, 24 hours): 84% | Potted Rate Mean ([1]; 400 mg/L, 48 hours): 14% | Potted Rate Mean ([1]; 800 mg/L, 24 hours): 92% | Potted Rate Mean ([1]; 800 mg/L, 48 hours): 73% | Potted Rate Mean ([1]; 1200 mg/L, 48 hours): 71% | percent potted rate versus 1000 mg/L and control ([1]; initial testing, 200 mg/L, 48-hour co-treatment): increased the percent potted rate | doubled haploid ears produced versus the control [1, 5]: increase in the doubled haploid ears produced | percent potted rate versus the control [1, 5]: increased the percent potted rate | effect of metcamifen on amount of colchicine recovered ([2]; 500 ppm colchicine with 200 or 1000 ppm metcamifen): did not reduce the amount of colchicine recovered | metcamifen in embryo extracts (uptake) ([2]; co-treated with 500 ppm colchicine and 200 or 1000 ppm metcamifen, 24 and 48 hours): could be detected | recovery amount of colchicine metabolite (−14, O-demethylation) ([2]; duration and metcamifen co-treatment): increased | percent potting rate ([3]; post-treatment 5 and 10 mg/L, 3.5 g/L Gelzan, 24 or 48 hours): not increased | Potting Rate Mean ([3]; 5 mg/L, Duration 24 hours): 69% | Potting Rate Mean ([3]; 5 mg/L, Duration 48 hours): 18% | Potting Rate Mean ([3]; 10 mg/L, Duration 24 hours): 62% | Potting Rate Mean ([3]; 10 mg/L, Duration 48 hours): 24% | Potting Rate Mean ([3]; 20 mg/L, Duration 24 hours): 51% | Potting Rate Mean ([3]; 20 mg/L, Duration 48 hours): 23%

CN1COCN(Cc2cnc(Cl)s2)/C1=N\[N+](=O)[O-] [TMX, thiamethoxam]
Potting Rate Mean [4, 6]: 55% | Transplant Rate Mean [4, 6]: 51% | Potting Rate Mean [4, 7]: 7% | Transplant Rate Mean [4, 7]: 7% | Potting Rate Mean [4, 8]: 38% | Transplant Rate Mean [4, 8]: 37% | Potting Rate Mean [4, 9]: 15% | Transplant Rate Mean [4, 9]: 15% | Potting Rate Mean [4, 10]: 58% | Transplant Rate Mean [4, 10]: 55% | Potting Rate Mean [4, 11]: 11% | Transplant Rate Mean [4, 11]: 11% | Potting Rate Mean [4, 12]: 68% | Transplant Rate Mean [4, 12]: 54% | Potting Rate Mean [4, 13]: 77% | Transplant Rate Mean [4, 13]: 66% | Potting Rate Mean [4, 14]: 51% | Transplant Rate Mean [4, 14]: 42% | Potting Rate Mean [4, 15]: 74% | Transplant Rate Mean [4, 15]: 56%
